{
  "source": "patent US20250098679A1",
  "about": "“HERBICIDAL PYRIDONE DERIVATIVES” (SYNGENTA CROP PROTECTION AG, priority 2021, published 2025)",
  "type_in_all_cases": "in vivo",
  "conditions_in_all_cases": "evaluated after 13 days",
  "key": {"Setaria faberi (SETFA) [1]": {"system": "Setaria faberi (SETFA)", "assay": "Pre-emergence Test, Setaria faberi (SETFA)"}, "[2]": {"system": "Echinochloa crus-galli (ECHCG)", "assay": "Pre-emergence Test, Echinochloa crus-galli (ECHCG)"}, "Zea mays (ZEAMX) [3]": {"system": "Zea mays (ZEAMX)", "assay": "Pre-emergence Test, Zea mays (ZEAMX)"}, "[4]": {"system": "Ipomoea hederacea (IPOHE)", "assay": "Pre-emergence Test, Ipomoea hederacea (IPOHE)"}, "[5]": {"system": "Amaranthus palmeri (AMAPA)", "assay": "Pre-emergence Test, Amaranthus palmeri (AMAPA)"}, "[6]": {"system": "Amaranthus retoflexus (AMARE)", "assay": "Pre-emergence Test, Amaranthus retoflexus (AMARE)"}, "Setaria faberi (SETFA) [7]": {"system": "Setaria faberi (SETFA)", "assay": "Post-emergence Test, Setaria faberi (SETFA)", "parameters": "key to percentage damage caused to the plant, SETFA (five-point scale): 5=81-100%, 4=61-80%, 3=41-60%, 2=21-40%, 1=0-20% damage", "summary_of_the_method": "(§1)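 Sown pots in a glasshouse (24/16 °C day/night, 14 h light, 65% humidity) were sprayed with compound in acetone/water (50:50) with 0.5% Tween 20, at 1000 g/ha unless otherwise stated. Damage was assessed 13 days after spraying and scored 1–5 (5=81-100%, 1=0-20%).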"}, "[8]": {"system": "Echinochloa crus-galli (ECHCG)", "assay": "Post-emergence Test, Echinochloa crus-galli (ECHCG)", "parameters": "key to percentage damage caused to the plant, ECHCG (five-point scale): 5=81-100%, 4=61-80%, 3=41-60%, 2=21-40%, 1=0-20% damage", "summary_of_the_method": "as §1"}, "Zea mays (ZEAMX) [9]": {"system": "Zea mays (ZEAMX)", "assay": "Post-emergence Test, Zea mays (ZEAMX)", "parameters": "key to percentage damage caused to the plant, ZEAMX (five-point scale): 5=81-100%, 4=61-80%, 3=41-60%, 2=21-40%, 1=0-20% damage", "summary_of_the_method": "as §1"}, "[10]": {"system": "Ipomoea hederacea (IPOHE)", "assay": "Post-emergence Test, Ipomoea hederacea (IPOHE)", "parameters": "key to percentage damage caused to the plant, IPOHE (five-point scale): 5=81-100%, 4=61-80%, 3=41-60%, 2=21-40%, 1=0-20% damage", "summary_of_the_method": "as §1"}, "[11]": {"system": "Amaranthus palmeri (AMAPA)", "assay": "Post-emergence Test, Amaranthus palmeri (AMAPA)", "parameters": "key: 5=81-100%, 4=61-80%, 3=41-60%, 2=21-40%, 1=0-20% damage", "summary_of_the_method": "as §1"}, "[12]": {"system": "Amaranthus retoflexus (AMARE)", "assay": "Post-emergence Test, Amaranthus retoflexus (AMARE)", "parameters": "key to percentage damage caused to the plant, AMARE (five-point scale): 5=81-100%, 4=61-80%, 3=41-60%, 2=21-40%, 1=0-20% damage", "summary_of_the_method": "as §1"}},
  "data": [
    {"smiles": "CCn1c(Cn2ccc(OCCOC)n2)cc(=O)c(C(=O)O)c1-c1ccc(Cl)c(Cl)c1", "note": "[Compound 161, 2-(3,4-dichlorophenyl)-1-ethyl-6-[[3-(2-methoxyethoxy)pyrazol-1-yl]methyl]-4-oxo-pyridine-3-carboxylic acid]", "values": [
      {"measurement": "Pre-emergence Test SETFA, percentage damage caused to the plant (five-point scale)", "setting": "Setaria faberi (SETFA) [1]; 250 g/Ha (*)", "result": "1 (1=0-20%)"},
      {"measurement": "Pre-emergence Test SETFA, percentage damage caused to the plant (five-point scale)", "setting": "Setaria faberi (SETFA) [1]; 1000 g/ha", "result": "4 (4=61-80%)"},
      {"measurement": "Pre-emergence Test ECHCG, percentage damage caused to the plant (five-point scale)", "setting": "[2]; 250 g/Ha (*)", "result": 0},
      {"measurement": "Pre-emergence Test ECHCG, percentage damage caused to the plant (five-point scale)", "setting": "[2]; 1000 g/ha", "result": "3 (3=41-60%)"},
      {"measurement": "Pre-emergence Test ZEAMX, percentage damage caused to the plant (five-point scale)", "setting": "Zea mays (ZEAMX) [3]; 250 g/Ha (*)", "result": 0},
      {"measurement": "Pre-emergence Test ZEAMX, percentage damage caused to the plant (five-point scale)", "setting": "Zea mays (ZEAMX) [3]; 1000 g/ha", "result": 0},
      {"measurement": "Pre-emergence Test IPOHE, percentage damage caused to the plant (five-point scale)", "setting": "[4]; 250 g/Ha (*)", "result": 0},
      {"measurement": "Pre-emergence Test IPOHE, percentage damage caused to the plant (five-point scale)", "setting": "[4]; 1000 g/ha", "result": "3 (3=41-60%)"},
      {"measurement": "Pre-emergence Test AMAPA, percentage damage caused to the plant (five-point scale)", "setting": "[5]; 250 g/Ha (*)", "result": 0},
      {"measurement": "Pre-emergence Test AMAPA, percentage damage caused to the plant (five-point scale)", "setting": "[5]; 1000 g/ha", "result": "1 (1=0-20%)"},
      {"measurement": "Pre-emergence Test AMARE, percentage damage caused to the plant (five-point scale)", "setting": "[6]; 250 g/Ha (*)", "result": 0},
      {"measurement": "Pre-emergence Test AMARE, percentage damage caused to the plant (five-point scale)", "setting": "[6]; 1000 g/ha", "result": 0},
      {"measurement": "percentage damage caused to the plant, SETFA (five-point scale)", "setting": "Setaria faberi (SETFA) [7]; 250 g/Ha", "result": "2 (2=21-40%)"},
      {"measurement": "percentage damage caused to the plant, SETFA (five-point scale)", "setting": "Setaria faberi (SETFA) [7]; 1000 g/ha", "result": "3 (3=41-60%)"},
      {"measurement": "percentage damage caused to the plant, ECHCG (five-point scale)", "setting": "[8]; 250 g/Ha", "result": "2 (2=21-40%)"},
      {"measurement": "percentage damage caused to the plant, ECHCG (five-point scale)", "setting": "[8]; 1000 g/ha", "result": "3 (3=41-60%)"},
      {"measurement": "percentage damage caused to the plant, ZEAMX (five-point scale)", "setting": "Zea mays (ZEAMX) [9]; 250 g/Ha", "result": "1 (1=0-20%)"},
      {"measurement": "percentage damage caused to the plant, ZEAMX (five-point scale)", "setting": "Zea mays (ZEAMX) [9]; 1000 g/ha", "result": "1 (1=0-20%)"},
      {"measurement": "percentage damage caused to the plant, IPOHE (five-point scale)", "setting": "[10]; 250 g/Ha", "result": "1 (1=0-20%)"},
      {"measurement": "percentage damage caused to the plant, IPOHE (five-point scale)", "setting": "[10]; 1000 g/ha", "result": "3 (3=41-60%)"},
      {"measurement": "percentage damage caused to the plant, AMAPA (five-point scale)", "setting": "[11]; 250 g/Ha", "result": 0},
      {"measurement": "percentage damage caused to the plant, AMAPA (five-point scale)", "setting": "[11]; 1000 g/ha", "result": "1 (1=0-20%)"},
      {"measurement": "percentage damage caused to the plant, AMARE (five-point scale)", "setting": "[12]; 250 g/Ha", "result": "1 (1=0-20%)"},
      {"measurement": "percentage damage caused to the plant, AMARE (five-point scale)", "setting": "[12]; 1000 g/ha", "result": 0}
    ]},
    {"smiles": "CCn1c(Cn2ccc(F)n2)cc(=O)c(C(=O)O)c1-c1ccc(Cl)c(Cl)c1", "note": "[Compound 36, 2-(3,4-dichlorophenyl)-1-ethyl-6-[(3-fluoropyrazol-1-yl)methyl]-4-oxo-pyridine-3-carboxylic acid]", "values": [
      {"measurement": "Pre-emergence Test SETFA, percentage damage caused to the plant (five-point scale)", "setting": "Setaria faberi (SETFA) [1]; 250 g/Ha (*)", "result": "4 (4=61-80%)"},
      {"measurement": "Pre-emergence Test ECHCG, percentage damage caused to the plant (five-point scale)", "setting": "[2]; 250 g/Ha (*)", "result": "3 (3=41-60%)"},
      {"measurement": "Pre-emergence Test ZEAMX, percentage damage caused to the plant (five-point scale)", "setting": "Zea mays (ZEAMX) [3]; 250 g/Ha (*)", "result": 0},
      {"measurement": "Pre-emergence Test IPOHE, percentage damage caused to the plant (five-point scale)", "setting": "[4]; 250 g/Ha (*)", "result": 0},
      {"measurement": "Pre-emergence Test AMAPA, percentage damage caused to the plant (five-point scale)", "setting": "[5]; 250 g/Ha (*)", "result": "2 (2=21-40%)"},
      {"measurement": "Pre-emergence Test AMARE, percentage damage caused to the plant (five-point scale)", "setting": "[6]; 250 g/Ha (*)", "result": "1 (1=0-20%)"},
      {"measurement": "percentage damage caused to the plant, SETFA (five-point scale)", "setting": "Setaria faberi (SETFA) [7]; 250 g/Ha", "result": "4 (4=61-80%)"},
      {"measurement": "percentage damage caused to the plant, ECHCG (five-point scale)", "setting": "[8]; 250 g/Ha", "result": "3 (3=41-60%)"},
      {"measurement": "percentage damage caused to the plant, ZEAMX (five-point scale)", "setting": "Zea mays (ZEAMX) [9]; 250 g/Ha", "result": "2 (2=21-40%)"},
      {"measurement": "percentage damage caused to the plant, IPOHE (five-point scale)", "setting": "[10]; 250 g/Ha", "result": "4 (4=61-80%)"},
      {"measurement": "percentage damage caused to the plant, AMAPA (five-point scale)", "setting": "[11]; 250 g/Ha", "result": "1 (1=0-20%)"},
      {"measurement": "percentage damage caused to the plant, AMARE (five-point scale)", "setting": "[12]; 250 g/Ha", "result": "2 (2=21-40%)"}
    ]}
  ]
}
